Drawing on patent US20090285773A1, “Hepatitis C Virus Inhibitors” (Bristol-Myers Squibb Company, priority 2008, published 2009), this text covers EC50 and IC50 for five molecules.

The subject of test [1] is HCV replicon (strain 1b) in HUH-7 cells. Kind of test: HCV replicon FRET assay. Particulars: Hepatitis C virus, Huh-7; Table 2; replicon assay variant and unit inferred; read-out: EC50. It is filed as cell-based. An excerpt:
An HCV replicon whole cell system was established as described by Lohmann V, Korner F, Koch J, Herian U, Theilmann L, Bartenschlager R., Science 285(5424): 110-3 (1999). This system enabled us to evaluate the effects of our HCV Protease compounds on HCV RNA replication. Briefly, using the HCV strain 1b sequence described in the Lohmann paper (Assession number:AJ238799), an HCV cDNA was synthesized by Operon Technologies, Inc. (Alameda, Calif.), and the full-length replicon was then assembled in plasmid pGem9zf(+) (Promega, Madison, Wis.) using standard molecular biology techniques. The replicon consists of (i) the HCV 5′ UTR fused to the first 12 amino acids of the capsid protein, (ii) the neomycin phosphotransferase gene (neo), (iii) the IRES from encephalomyocarditis virus (EMCV), and (iv) HCV NS3 to NS5B genes and the HCV 3′ UTR. Plasmid DNAs were linearized with ScaI and RNA transcripts were synthesized in vitro using the T7 MegaScript transcription kit (Ambion, Austin, Tex.) according to manufacturer's directions. In vitro transcripts of the cDNA were transfected into the human hepatoma cell line, HUH-7. […] Resulting cell lines were characterized for positive and negative strand RNA production and protein production over time.
The HCV replicon FRET assay was developed to monitor the inhibitory effects of compounds described in the disclosure on HCV viral replication. HUH-7 cells, constitutively expressing the HCV replicon, were grown in Dulbecco's Modified Eagle Media (DMEM) (Gibco-BRL) containing 10% Fetal calf serum (FCS) (Sigma) and 1 mg/ml G418 (Gibco-BRL). Cells were seeded the night before (1.5×10^4 cells/well) in 96-well tissue-culture sterile plates. Compound and no compound controls were prepared in DMEM containing 4% FCS, 1:100 Penicillin/Streptomysin (Gibco-BRL), 1:100 L-glutamine and 5% DMSO in the dilution plate (0.5% DMSO final concentration in the assay). Compound/DMSO mixes were added to the cells and incubated for 4 days at 37° C. After 4 days, cells were first assessed for cytotoxicity using alamar Blue (Trek Diagnotstic Systems) for a CC50 reading. The toxicity of compound (CC50) was determined by adding 1/10th volume of alamar Blue to the media incubating the cells. After 4 h, the fluorescence signal from each well was read, with an excitation wavelength at 530 nm and an emission wavelength of 580 nm, using the Cytofluor Series 4000 (Perspective Biosystems). Plates were then rinsed thoroughly with Phosphate-Buffered Saline (PBS) (3 times 150 μl).

Test [2] addresses T1, NS3/4A protease complex (UniProt P27958).
T1 construct: fused on or other part: three-lysine solubilising tail at the C-terminus of NS4A; probably a His tag from pET21b (Ni-NTA purification)
Kind of test: HCV NS3/4A protease complex enzyme assay (strain not stated). Type of test: biochemical. Particulars: Table 2; strain and unit inferred. An excerpt: The purpose of this in vitro assay was to measure the inhibition of HCV NS3 protease complexes, derived from the BMS strain, H77 strain or J4L6S strain, as described above, by compounds of the present disclosure. This assay provides an indication of how effective compounds of the present disclosure would be in inhibiting HCV NS3 proteolytic activity.
In order to monitor HCV NS3/4A protease activity, an NS3/4A peptide substrate was used. The substrate was RET S1 (Resonance Energy Transfer Depsipeptide Substrate; AnaSpec, Inc. cat #22991)(FRET peptide), described by Taliani et al. in Anal. Biochem. 240(2):60-67 (1996). The sequence of this peptide is loosely based on the NS4A/NS4B natural cleavage site for the HCV NS3 protease except there is an ester linkage rather than an amide bond at the cleavage site. The peptide also contains a fluorescence donor, EDANS, near one end of the peptide and an acceptor, DABCYL, near the other end. The fluorescence of the peptide is quenched by […] resonance energy transfer (RET) between the donor and the acceptor, but as the NS3 protease cleaves the peptide the products are released from RET quenching and the fluorescence of the donor becomes apparent.
The peptide substrate was incubated with one of the three recombinant NS3/4A protease complexes, in the absence or presence of a compound of the present disclosure. The inhibitory effects of a compound were determined by monitoring the formation of fluorescent reaction product in real time using a Cytofluor Series 4000.
Assay buffer: 50 mM HEPES, pH 7.5; 0.15 M NaCl; 0.1% Triton; 15% Glycerol; 10 mM βME. Substrate: 2 μM final concentration (from a 2 mM stock solution in DMSO stored at −20° C.). HCV NS3/4A protease type 1a (1b), 2-3 nM final concentration (from a 5 μM stock solution in 25 mM HEPES, pH 7.5, 20% glycerol, 300 mM NaCl, 0.2% Triton-X100, 10 mM βME). For compounds with potencies approaching the assay limit, the assay was made more sensitive by adding 50 μg/ml Bovine Serum Albumin (Sigma) to the assay buffer and reducing the end protease concentration to 300 pM.
The assay was performed in a 96-well polystyrene black plate from Falcon. Each well contained 25 μl NS3/4A protease complex in assay buffer, 50 μl of a compound of the present disclosure in 10% DMSO/assay buffer and 25 μl substrate in assay buffer. A control (no compound) was also prepared on the same assay plate. The enzyme complex was mixed with compound or control solution for 1 min before initiating the enzymatic reaction by the addition of substrate. The assay plate was read immediately using the Cytofluor Series 4000 (Perspective Biosystems). The instrument was set to read an emission of […] at 25° C. Reactions were generally followed for approximately 15 min.
The percent inhibition was calculated with the following equation: […]
where δF is the change in fluorescence over the linear range of the curve. A non-linear curve fit was applied to the inhibition-concentration data, and the 50% effective concentration (IC50) was calculated by the use of Excel XLfit software using the equation, y=A+((B−A)/(1+((C/x)̂D))).

T1 sequence (P27958 1027-1657, one chain of several): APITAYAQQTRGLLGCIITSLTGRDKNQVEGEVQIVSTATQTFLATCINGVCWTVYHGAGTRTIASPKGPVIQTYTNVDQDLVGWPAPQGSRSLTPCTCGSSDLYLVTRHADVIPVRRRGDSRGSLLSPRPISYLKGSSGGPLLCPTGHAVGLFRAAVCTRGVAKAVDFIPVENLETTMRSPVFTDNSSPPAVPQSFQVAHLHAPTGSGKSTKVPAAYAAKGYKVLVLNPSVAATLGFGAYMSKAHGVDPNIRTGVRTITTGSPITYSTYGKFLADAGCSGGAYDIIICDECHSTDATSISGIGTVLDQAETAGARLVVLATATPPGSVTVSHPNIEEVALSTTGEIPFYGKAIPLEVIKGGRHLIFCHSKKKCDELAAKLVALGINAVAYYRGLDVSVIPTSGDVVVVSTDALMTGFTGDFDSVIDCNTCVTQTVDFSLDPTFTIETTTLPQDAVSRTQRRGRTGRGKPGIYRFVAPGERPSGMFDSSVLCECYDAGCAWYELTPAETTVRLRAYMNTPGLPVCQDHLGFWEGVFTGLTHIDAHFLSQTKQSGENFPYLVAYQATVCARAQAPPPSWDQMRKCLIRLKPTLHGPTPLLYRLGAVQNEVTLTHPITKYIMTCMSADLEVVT

`COc1ccc2c(O[C@@H]3C[C@H]4C(=O)N[C@]5(C(=O)NS(=O)(=O)C6CC6)C[C@H]5/C=C\CCCCC[C@H](Nc5nc(-c6ccc(OC(F)(F)F)cc6)cs5)C(=O)N4C3)nccc2c1` [Compound 3]: the EC50 (as a rule, the concentration needed to bring the measured effect to its halfway point) in test [1] was determined as 6.2 nM. Also, it took 5 nM to reach half-maximal inhibition in test [2] (IC50).
The like results for `COc1ccc(N[C@H]2CCCCC/C=C\[C@@H]3C[C@@]3(C(=O)NS(=O)(=O)C3CC3)NC(=O)[C@@H]3C[C@@H](Oc4ncc(OC)c5ccc(Cl)cc45)CN3C2=O)cn1` (single isomer, unassigned) [Compound 2] were, in that order, 9.1 nM and 6 nM.
Turning to `COc1cnc(O[C@@H]2C[C@H]3C(=O)N[C@]4(C(=O)NS(=O)(=O)C5CC5)C[C@H]4/C=C\CCCCC[C@H](Nc4nc(-c5ccc(OC(F)(F)F)cc5)cs4)C(=O)N3C2)c2cc(Cl)ccc12` [Compound 6], in test [1], the EC50 came to 8.7 nM. Also, in test [2], inhibition was half-maximal at 2 nM (IC50).
Consider `COc1ccc2c(O[C@@H]3C[C@H]4C(=O)N[C@]5(C(=O)NS(=O)(=O)C6CC6)C[C@H]5/C=C\CCCCC[C@H](Nc5nc(-c6ccc(F)cc6F)cs5)C(=O)N4C3)nccc2c1` [Compound 4], for which the EC50 in test [1] came out at 13.8 nM. For the same molecule, the IC50 (in general, the concentration that inhibits the measured activity by half) in test [2] was determined as 11 nM.
For `COc1ccc2c(O[C@@H]3C[C@H]4C(=O)N[C@]5(C(=O)NS(=O)(=O)C6CC6)C[C@H]5/C=C\CCCCC[C@H](Nc5nc(-c6ccccc6)cs5)C(=O)N4C3)nccc2c1` [Compound 5], the EC50 in test [1] turned out to be 8.1 nM. Also, the IC50 in test [2] was 3 nM.
